Measurements taken from patent publication US20170003277A1 (priority 2015, published 2017).

What was measured:
[1] = system: human PBMC; test: Immunological cell type enrichment for genes modulated by GA in human PBMC; format: in vivo; parameters: Score: scale not given here
Description: Genome-wide expression profiles in cells from three different datasets in two different species (human, mouse) were studied. LIMMA was utilized to identify a genome-wide list of differentially expressed genes induced by GA in the primed and ex vivo stimulated mouse splenocytes, as well as in the THP-1 human monocyte cell line. Repeated-measures ANOVA was utilized to find a genome-wide list of genes modulated by GA in treated MS patients. Advanced enrichment algorithms were then applied to elucidate the pathways and cell types modulated by GA.
In addition to the shared induced effects discussed above, each system and platform clearly captured different aspects of GA's impact on the immune system. […] In human PBMCs, genes associated with immune cell types were modulated early in treatment (by month 3), including certain cell types affected in prior systems, but also distinct cell types, such as megakaryocytes and myeloid progenitors (Table 11).

[2] = system: THP-1 human monocyte cell line; test: Luminex secreted cytokines and chemokines from THP-1 cells, 24 hours, Polimunol or Probioglat vs Copaxone (Example 13); format: cell-based; details: mannitol control
Procedure: To evaluate effects of Copaxone at the protein level, and assess the extent to which differences observed at the mRNA level (using micaroarry and qRT-PCR) were further consistent with effects observed at the level of the translated proteins, levels of 42 secreted cytokines and chemokines were measured using Luminex technology, analyzing the supernatant of THP-1 cells (human monocyte cell line) stimulated for 24 hours with Copaxone, FOGA, or mannitol control.
Measurements were also undertaken at the protein level, in order to assess the biological relevance of the observed gene expression differences. Levels of a panel of secreted cytokines and chemokines were measured via Luminex from THP-1 cells stimulated with branded GA, Polimunol, or Probioglat.
Cells from the THP-1 human monocyte cell line were incubated with branded GA, FOGA (Polimunol or Probioglat), or vehicle control (mannitol) for 24 hours. This time point was chosen in order to reflect translation of mRNA expression patterns observed in the same study design at 6 hours post stimulation. Supernatants were collected and assayed for the concentration of selected proteins using a Luminex assay. A total of 5 biological replicates per condition were utilized.
Data (concentrations in pg/mL) were compared using a two-sided t-test with equal variance, and corrected for multiple hypothesis testing using Benjamini-Hochberg correction. […]

[3] = cited from earlier work
[4] = BASO1.rnk, Upregulated, Cluster 2
[5] = BCELLA1.rnk, Downregulated, Cluster 0
[6] = BCELLA2.rnk, Downregulated, Cluster 0
[7] = BCELLA3.rnk, Downregulated, Cluster 0
[8] = BCELLA4.rnk, Downregulated, Cluster 0
[9] = CMP.rnk, Upregulated, Cluster 4
[10] = EOS2.rnk, Upregulated, Cluster 2
[11] = ERY1.rnk, Upregulated, Cluster 2
[12] = ERY1.rnk, Upregulated, Cluster 4
[13] = ERY2.rnk, Upregulated, Cluster 2
[14] = ERY2.rnk, Upregulated, Cluster 4
[15] = ERY3.rnk, Upregulated, Cluster 2
[16] = ERY3.rnk, Upregulated, Cluster 4
[17] = ERY4.rnk, Upregulated, Cluster 2
[18] = ERY4.rnk, Upregulated, Cluster 4
[19] = ERY5.rnk, Upregulated, Cluster 2
[20] = ERY5.rnk, Upregulated, Cluster 4
[21] = GMP.rnk, Upregulated, Cluster 4
[22] = GRAN1.rnk, Upregulated, Cluster 2
[23] = GRAN2.rnk, Upregulated, Cluster 4
[24] = HSC3.rnk, Upregulated, Cluster 4
[25] = MEGA1.rnk, Upregulated, Cluster 4
[26] = MEGA2.rnk, Upregulated, Cluster 0
[27] = MEGA2.rnk, Upregulated, Cluster 4
[28] = MEP.rnk, Upregulated, Cluster 2
[29] = PRE_BCELL3.rnk, Upregulated, Cluster 2

For glatiramer acetate [Copaxone®], which Score [1, 4] is on record?
Its Score is 87.3.

And the p.val [1, 4]?
Its p.val is 0.00322.

What about the Score [1, 5] of the same substance?
Its Score is −19.11.

What about the p.val [1, 5] of the same substance?
The p.val was 0.002737.

What about the Score [1, 6] of the same substance?
Its Score is −25.77.

And the p.val [1, 6]?
Its p.val is 0.0004201.

And the Score [1, 7]?
Its Score is −20.11.

What about the p.val [1, 7] of the same substance?
The p.val was 0.001385.

And the Score [1, 8]?
The Score was −21.51.

What about the p.val [1, 8] of the same substance?
Its p.val is 0.002538.

And the Score [1, 9]?
The Score was 23.19.

What about the p.val [1, 9] of the same substance?
The p.val was 0.002214.

And the Score [1, 10]?
Its Score is 62.69.

And the p.val [1, 10]?
Its p.val is 0.002286.

What about the Score [1, 11] of the same substance?
Its Score is 28.25.

And the p.val [1, 11]?
Its p.val is 0.003043.

What about the Score [1, 12] of the same substance?
The Score was 45.

What about the p.val [1, 12] of the same substance?
Its p.val is 0.002587.

What about the Score [1, 13] of the same substance?
The Score was 32.83.

And the p.val [1, 13]?
Its p.val is 8.43E−05.

And the Score [1, 14]?
The Score was 47.25.

And the p.val [1, 14]?
The p.val was 4.70E−06.

What about the Score [1, 15] of the same substance?
Its Score is 84.62.

And the p.val [1, 15]?
The p.val was 0.0002869.

And the Score [1, 16]?
The Score was 90.02.

What about the p.val [1, 16] of the same substance?
Its p.val is 0.009061.

And the Score [1, 17]?
Its Score is 69.44.

And the p.val [1, 17]?
Its p.val is 0.0001417.

What about the Score [1, 18] of the same substance?
The Score was 77.38.

What about the p.val [1, 18] of the same substance?
The p.val was 0.001966.

What about the Score [1, 19] of the same substance?
Its Score is 64.23.

And the p.val [1, 19]?
Its p.val is 9.88E−07.

What about the Score [1, 20] of the same substance?
Its Score is 73.42.

And the p.val [1, 20]?
Its p.val is 0.0009808.

What about the Score [1, 21] of the same substance?
Its Score is 33.13.

And the p.val [1, 21]?
Its p.val is 0.0001427.

What about the Score [1, 22] of the same substance?
Its Score is 55.17.

What about the p.val [1, 22] of the same substance?
Its p.val is 0.0005577.

And the Score [1, 23]?
The Score was 35.18.

What about the p.val [1, 23] of the same substance?
Its p.val is 0.00875.

What about the Score [1, 24] of the same substance?
The Score was 45.41.

And the p.val [1, 24]?
Its p.val is 0.0002875.

And the Score [1, 25]?
The Score was 38.05.

And the p.val [1, 25]?
Its p.val is 4.66E−09.

And the Score [1, 26]?
The Score was 32.43.

What about the p.val [1, 26] of the same substance?
The p.val was 1.24E−12.

And the Score [1, 27]?
The Score was 64.46.

And the p.val [1, 27]?
The p.val was 4.41E−12.

And the Score [1, 28]?
The Score was 30.54.

What about the p.val [1, 28] of the same substance?
The p.val was 0.009388.

What about the Score [1, 29] of the same substance?
The Score was 57.94.

And the p.val [1, 29]?
The p.val was 3.98E−08.

What about the “CCL2 secreted level relative to control” value [2] of the same substance?
The value was “not modulated”.

And the “Adverse events leading to discontinuation” value ([3]; GATE study arm)?
The value was 5.

And the “Effect on annualized relapse rate (ARR)” value ([3]; GATE study, Copaxone arm (357) vs Placebo (84))?
Its value is “no effect in reducing ARR”.
